In ChEMBL document CHEMBL3988442, “University of Dundee, Small-Polar-MMV Screening Library” (2021):
Values joined by “and” are separate entries in the source; they are usually repeats but may differ in a detail not shown here. Identical values can stand only once.

Legend:
[1] = system: Mycobacterium tuberculosis; assay: Cornell M. t heat shock assay; assay type: functional, organism-based; settings: for IC50: Mycobacterium tuberculosis
Wolbachia pipientis = assay: Anti-Wolbachia Cell-Based Screen; assay type: functional; settings: for IC50: Wolbachia pipientis
Schistosoma mansoni = assay: High throughput screening of compounds against Schistosoma mansoni motility; assay type: functional; parameters: dose or concentration left out as unconfirmed
[2] = microbe, parasite or virus in culture; settings: Mycobacterium tuberculosis, 72 h, read-out: pIC50 (converted)
[3] = microbe, parasite or virus in culture; settings: Mycobacterium tuberculosis, 96 h, read-out: pIC50 (converted)
Histidine--tRNA ligase = molecular target: T1, Histidine--tRNA ligase (Leishmania infantum, UniProt A4I591); assay: Leishmania infantum Histidine tRNA synthetase (LdHisRS); assay type: functional
T1 sequence (A4I591 whole entry): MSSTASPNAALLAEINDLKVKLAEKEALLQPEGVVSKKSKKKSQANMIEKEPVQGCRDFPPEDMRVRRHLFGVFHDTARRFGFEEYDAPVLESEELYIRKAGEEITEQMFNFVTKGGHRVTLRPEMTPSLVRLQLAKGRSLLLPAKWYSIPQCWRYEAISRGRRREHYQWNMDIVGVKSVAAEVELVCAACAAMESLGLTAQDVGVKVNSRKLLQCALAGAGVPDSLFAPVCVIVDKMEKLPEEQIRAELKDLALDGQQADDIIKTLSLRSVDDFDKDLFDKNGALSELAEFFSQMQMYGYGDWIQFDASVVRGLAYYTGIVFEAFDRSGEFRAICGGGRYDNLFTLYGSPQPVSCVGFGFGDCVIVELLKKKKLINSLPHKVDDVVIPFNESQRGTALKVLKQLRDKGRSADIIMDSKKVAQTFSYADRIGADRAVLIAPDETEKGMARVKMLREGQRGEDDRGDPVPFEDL

[4] = molecular target: Polyketide synthase Pks13 (Mycobacterium tuberculosis (strain ATCC 25618 / H37Rv), UniProt I6X8D2); assay: Mycobacterium tuberculosis Polyketide synthase 13 Thioesterase (PKS13); assay type: functional
Polyketide synthase Pks13, sequence (I6X8D2 whole entry): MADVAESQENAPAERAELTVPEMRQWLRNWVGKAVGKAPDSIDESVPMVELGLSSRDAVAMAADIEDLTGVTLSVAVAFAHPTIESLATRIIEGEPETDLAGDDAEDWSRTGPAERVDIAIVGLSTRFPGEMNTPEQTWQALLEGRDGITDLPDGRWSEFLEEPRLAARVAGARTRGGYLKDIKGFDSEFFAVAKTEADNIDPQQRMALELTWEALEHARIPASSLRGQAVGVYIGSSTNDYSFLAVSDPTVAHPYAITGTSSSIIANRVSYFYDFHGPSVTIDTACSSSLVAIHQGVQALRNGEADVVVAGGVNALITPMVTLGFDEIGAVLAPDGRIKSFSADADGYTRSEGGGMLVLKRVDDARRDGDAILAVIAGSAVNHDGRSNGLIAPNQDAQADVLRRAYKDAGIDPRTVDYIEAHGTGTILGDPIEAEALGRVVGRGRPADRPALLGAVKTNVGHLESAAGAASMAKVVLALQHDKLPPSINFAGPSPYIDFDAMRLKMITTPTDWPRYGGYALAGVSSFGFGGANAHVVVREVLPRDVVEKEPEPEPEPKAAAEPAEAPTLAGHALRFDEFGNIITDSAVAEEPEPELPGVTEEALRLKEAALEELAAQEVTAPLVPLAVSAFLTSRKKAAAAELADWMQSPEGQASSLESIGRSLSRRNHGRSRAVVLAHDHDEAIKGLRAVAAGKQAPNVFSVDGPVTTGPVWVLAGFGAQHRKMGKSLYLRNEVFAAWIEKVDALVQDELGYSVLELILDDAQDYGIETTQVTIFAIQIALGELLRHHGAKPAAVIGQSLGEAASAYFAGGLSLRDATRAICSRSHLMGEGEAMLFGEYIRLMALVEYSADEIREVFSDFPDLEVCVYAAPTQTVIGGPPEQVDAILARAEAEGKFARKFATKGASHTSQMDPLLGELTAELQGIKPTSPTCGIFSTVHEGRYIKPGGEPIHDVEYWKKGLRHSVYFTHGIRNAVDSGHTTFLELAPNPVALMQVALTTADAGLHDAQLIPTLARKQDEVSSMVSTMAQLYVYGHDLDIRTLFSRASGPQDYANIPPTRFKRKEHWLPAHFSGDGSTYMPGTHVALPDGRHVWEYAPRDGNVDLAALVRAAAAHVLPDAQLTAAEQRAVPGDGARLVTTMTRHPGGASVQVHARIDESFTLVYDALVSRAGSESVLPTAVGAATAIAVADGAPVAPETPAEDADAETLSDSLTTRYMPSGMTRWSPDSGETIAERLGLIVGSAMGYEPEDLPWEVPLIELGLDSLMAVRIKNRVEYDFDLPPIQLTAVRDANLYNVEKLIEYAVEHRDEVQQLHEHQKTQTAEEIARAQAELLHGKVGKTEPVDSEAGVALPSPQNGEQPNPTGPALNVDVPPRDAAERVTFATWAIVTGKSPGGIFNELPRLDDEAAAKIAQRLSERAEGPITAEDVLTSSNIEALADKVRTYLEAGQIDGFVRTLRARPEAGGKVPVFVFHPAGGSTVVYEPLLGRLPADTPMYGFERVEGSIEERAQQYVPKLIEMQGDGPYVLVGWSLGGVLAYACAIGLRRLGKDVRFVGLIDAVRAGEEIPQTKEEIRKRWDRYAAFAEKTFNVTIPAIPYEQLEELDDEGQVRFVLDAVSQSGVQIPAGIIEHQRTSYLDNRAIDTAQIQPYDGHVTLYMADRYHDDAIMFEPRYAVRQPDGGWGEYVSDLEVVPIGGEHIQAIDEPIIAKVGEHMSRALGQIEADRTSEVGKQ

ClpP1P2 = ClpP1P2 (Mycobacterium tuberculosis (strain ATCC 25618 / H37Rv), UniProt P9WPC3+P9WPC5); assay: in vitro assay to detect presence of AMC directly proportional to the activity of ClpP1P2. GHDDI collaboration.; assay type: functional
ClpP1P2, sequence (P9WPC5 whole entry): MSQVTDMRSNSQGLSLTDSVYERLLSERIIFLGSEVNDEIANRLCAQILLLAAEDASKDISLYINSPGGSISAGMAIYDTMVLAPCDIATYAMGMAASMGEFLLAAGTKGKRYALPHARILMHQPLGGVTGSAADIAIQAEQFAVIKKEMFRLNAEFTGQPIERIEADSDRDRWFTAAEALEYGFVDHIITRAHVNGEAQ
ClpP1P2, sequence (P9WPC3 whole entry): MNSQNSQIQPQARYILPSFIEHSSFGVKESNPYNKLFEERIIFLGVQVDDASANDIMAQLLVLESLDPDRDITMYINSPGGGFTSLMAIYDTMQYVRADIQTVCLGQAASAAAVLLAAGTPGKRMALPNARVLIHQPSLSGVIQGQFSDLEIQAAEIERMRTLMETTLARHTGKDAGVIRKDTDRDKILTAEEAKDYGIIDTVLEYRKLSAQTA

Compound	IC50 (Wolbachia pipientis) [µM]	pIC50 (Wolbachia pipientis)	other results
Cc1cc(N2CCOCC2)ccc1NC(C)c1nc(C(C)(C)C)no1 (configuration not stated)			IC50 [1]: > 100 µM
CN(Cc1ccc(F)cc1)CC1(O)CCCN(CC(C)(C)C)C1=O (configuration not stated)	> 10		Percent Effect (Schistosoma mansoni): 7.085%
CNc1cc(C)nc(N2Cc3cnn(Cc4ccc(F)cc4)c3C2)n1	0.556	6.156	IC50 [2]: 33.6 µM; IC50 [3]: 24.2 µM
CN1CCN(C(=O)c2cnsn2)c2ccc(F)cc21			IC50 [1]: 67.4 µM
Cc1cc(-c2cnc(NC3CCCC3)nc2-c2ccc(C)o2)on1			pIC50 [1]: 4.052; IC50 [1]: > 100 µM
CSCC[C@H](N)C(=O)NCc1cc2n(n1)CCCN(C(=O)C1CCC1)C2	> 10		Percent Effect (Schistosoma mansoni): -28.36%
COc1ccc(CCNCc2c(C)nn(C)c2N(C)C)cc1OC			IC50 [1]: > 100 µM
COc1ccc(CN2CCc3c(nc(-c4ccccn4)[nH]c3=O)C2)cc1			pIC50 [1]: 4.829 and 5.147
O=C(O)C(F)(F)F.c1cc(-c2ccc3c(c2)CCC32CCN(c3nncs3)CC2)ccn1	5.68	5.133	IC50 (Histidine--tRNA ligase): 19.6 µM and 24.9 µM
CCNc1cc2c(nn1)CCN(C(=O)c1ccnc(C)n1)C2	> 10		IC50 (Histidine--tRNA ligase): 58.6 µM and 51.7 µM
CO[C@H]1CCN(c2nnc(C)s2)C[C@@H]1Cc1cccc(C)c1.O=C(O)C(F)(F)F	3.74	5.267	IC50 [2]: 41.7 µM; IC50 [3]: 16.7 µM
CO[C@H]1CCN(c2nnc(C)s2)C[C@@H]1Cc1ccccc1.O=C(O)C(F)(F)F	3.77	5.449	IC50 [2]: 40.3 µM; IC50 [3]: 15.7 µM
Cc1csc(CN(C)c2cc(C)nc3c(C)c(C)nn23)n1	6.27	5.234	IC50 [2]: 37.9 µM; IC50 [3]: 25.5 µM
CO[C@@H]1CCN(c2nnc(C)s2)C[C@@H]1Cc1cccc(C)c1.O=C(O)C(F)(F)F	1.57	5.813	IC50 [2]: 41.6 µM; IC50 [3]: 16.3 µM
Fc1ccc(CN2CCCC(c3cc4ncccc4[nH]3)C2)cc1 (configuration not stated)	6.78	5.047	IC50 [2]: 33.7 µM; IC50 [3]: 24.3 µM
Cc1ccc(CN2CCn3c(CNC(=O)c4cccn4C)cnc3C2)s1	> 10		IC50 (Histidine--tRNA ligase): 64.8 µM and 62.5 µM
Cc1csc(CCCNC(=O)NC2CC(=O)N(C(C)(C)C)C2)n1 (configuration not stated)	> 10		
CSc1ccc(NCc2csc(C)n2)cc1F	5.53	5.126	
Cc1cc(NCCCNc2cccnc2)n2nc(C)c(C)c2n1	> 10	5.158	
CC1CCCN1Cc1cccc(C(=O)Nc2ccc3c(c2)CCC3=O)c1 (configuration not stated)	> 10		

Compound	IC50 (Wolbachia pipientis) [µM]	pIC50 (Wolbachia pipientis)	other results
CCN(CC)C(=O)c1ccc(Cl)c(NC(=O)c2cc[nH]n2)c1	3.96	5.355	
CNc1ncc(CN(C)c2ncnc3onc(C)c23)cn1	> 10		
Fc1ccc(N2CCCN(Cc3ccc(-c4cc[nH]n4)o3)CC2)cc1	6.44	5.26	
Cc1ccc(CSc2nc(N)cc(NCCC(=O)N3CCCC3)n2)cc1	4.89	5.181	
Cc1cc(N(Cc2cccs2)C2CC2)n2nc(C(F)(F)F)nc2n1		6.155 and 6.458	
Cc1cc(C)n(CC2CCCN2C(=O)CCc2ccco2)n1 (configuration not stated)	> 10		
Cc1nc(N2CCC3(CCOC3)C2)c2cc[nH]c2n1 (configuration not stated)	2.38	5.537	
Cc1nn(C)c(C)c1CN(C)c1nc(C2CC2)nc2c(C)nn(C)c12	2.65	5.529	
Cc1nn(C)c(C)c1C(=O)NCc1ccnc(OCC(F)(F)F)c1	> 10		
CCOc1nnc(CN2CCN(CCOC)CC2)s1	> 10		
Cc1nnc(N2CCCC3(CN(Cc4nccs4)CCO3)C2)o1 (configuration not stated)	> 10		
Cc1cc(NC(=O)NCC(O)c2ccc(F)c(F)c2)n(C)n1 (configuration not stated)	> 10		
CCOc1ncccc1C(=O)N1CCCC1c1c(C)nn(C)c1OC (configuration not stated)	> 10		
CC(C)N1CC(NC(=O)c2ccc(Cl)s2)CC1=O (configuration not stated)	> 10		
Cc1nn(C)c2nc(N3CCCCC3c3cccnc3)sc12 (configuration not stated)	1.24	6.07	
CCn1cc(-c2cc(-c3cc(CN(C)C)cs3)nc(N)c2C#N)c(C)n1	> 10		IC50 [4]: 24.7 µM and 11 µM; IC50 (ClpP1P2): > 100 µM
FC(F)(F)c1nc(NC2CCCCC2)c2ccccc2n1		5.146 and 5.539	
CCc1ccc(CN(C(=O)CCn2cc(S(N)(=O)=O)cn2)C2CC2)cc1	> 10		
Cc1nn(C)c2nc(N(Cc3nccs3)C3CC3)sc12	2.9	5.592	
CCOCCCn1c(NC(=O)c2cnc(C)cn2)nc2ccccc21	5.75	5.233	
